According to ChEMBL document CHEMBL3758169, “4-Aminoindazolyl-dihydrofuro[3,4-d]pyrimidines as non-covalent inhibitors of mutant epidermal growth factor receptor tyrosine kinase” (Bioorg Med Chem Lett, 2016):

Legend:
[1] = biological target: Tyrosine-protein kinase Yes (Homo sapiens) (UniProt P07947); experiment: Inhibition of YES (unknown origin) at 100 nM
[2] = biological target: Epidermal growth factor receptor (Homo sapiens, UniProt P00533); experiment: Inhibition of wild type EGFR (unknown origin)
[3] = tested on: RAF proto-oncogene serine/threonine-protein kinase (Homo sapiens), P04049 [Y340D,Y341D]; experiment: Inhibition of RAF1 Y340D/Y341D double mutant (unknown origin) at 100 nM
[4] = biological target: Casein kinase I isoform alpha (Homo sapiens) (UniProt P48729); experiment: Inhibition of CK1alpha1 (unknown origin) at 100 nM
[5] = biological target: Mitogen-activated protein kinase 8 (Homo sapiens) (UniProt P45983); experiment: Inhibition of JNK1 alpha1 (unknown origin) at 100 nM
TAK1/TAB1 (Homo sapiens) = TAK1/TAB1 (Homo sapiens) (UniProt Q15750+O43318); experiment: Inhibition of TAK1-TAB1 (unknown origin) at 100 nM; type: protein-complex assay
[6] = biological target: T1, Inhibitor of nuclear factor kappa-B kinase subunit epsilon (Homo sapiens) (UniProt Q14164); experiment: Inhibition of IKKepsilon (unknown origin) at 100 nM
T1 sequence (whole entry): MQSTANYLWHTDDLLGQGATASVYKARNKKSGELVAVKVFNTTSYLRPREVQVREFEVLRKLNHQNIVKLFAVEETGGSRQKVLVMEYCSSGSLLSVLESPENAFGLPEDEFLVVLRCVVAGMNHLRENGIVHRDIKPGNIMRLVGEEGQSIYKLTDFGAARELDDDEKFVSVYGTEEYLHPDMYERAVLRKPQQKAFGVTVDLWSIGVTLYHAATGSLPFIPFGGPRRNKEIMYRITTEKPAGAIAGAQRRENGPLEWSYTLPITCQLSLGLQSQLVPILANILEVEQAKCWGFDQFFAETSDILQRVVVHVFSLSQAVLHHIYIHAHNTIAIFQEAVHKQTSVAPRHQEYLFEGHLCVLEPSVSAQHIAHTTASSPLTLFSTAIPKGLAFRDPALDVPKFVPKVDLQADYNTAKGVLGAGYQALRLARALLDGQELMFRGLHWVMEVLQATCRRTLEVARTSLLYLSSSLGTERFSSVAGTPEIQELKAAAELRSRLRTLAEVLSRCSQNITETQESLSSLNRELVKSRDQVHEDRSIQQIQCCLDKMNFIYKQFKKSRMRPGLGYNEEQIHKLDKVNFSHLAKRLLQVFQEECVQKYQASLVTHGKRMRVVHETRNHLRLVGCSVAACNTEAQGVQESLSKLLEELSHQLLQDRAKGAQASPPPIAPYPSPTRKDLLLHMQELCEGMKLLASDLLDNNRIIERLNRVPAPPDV

[7] = biological target: Tyrosine-protein kinase JAK2 (Homo sapiens) (UniProt O60674); experiment: Inhibition of JAK2 (unknown origin) at 100 nM
[8] = Volume of distribution at steady state in rat; type: ADME, organism-based; details: in vivo, read-out: Vdss
[9] = biological target: Serine/threonine-protein kinase D1 (Homo sapiens) (UniProt Q15139); experiment: Inhibition of PKD1 (unknown origin) at 100 nM
[10] = biological target: Mast/stem cell growth factor receptor Kit (Homo sapiens) (UniProt P10721); experiment: Inhibition of KIT (unknown origin) at 100 nM
[11] = biological target: Inhibitor of nuclear factor kappa-B kinase subunit beta (Homo sapiens) (UniProt O14920); experiment: Inhibition of IKKbeta (unknown origin) at 100 nM
[12] = biological target: Serine/threonine-protein kinase TBK1 (Homo sapiens) (UniProt Q9UHD2); experiment: Inhibition of TBK1 (unknown origin) at 100 nM
[13] = Plasma clearance in iv dosed rat; type: ADME, organism-based
[14] = biological target: Tyrosine-protein kinase SYK (Homo sapiens) (UniProt P43405); experiment: Inhibition of SYK (unknown origin) at 100 nM
[15] = biological target: CDK8/Cyclin C (Homo sapiens) (UniProt P49336+P24863); experiment: Inhibition of CDK8/cyclinC (unknown origin) at 100 nM; type: protein-complex assay
[16] = biological target: Tyrosine-protein kinase Lyn (Homo sapiens) (UniProt P07948); experiment: Inhibition of LYN (unknown origin) at 100 nM
[17] = biological target: Cyclin-dependent kinase 5/CDK5 activator 1 (Homo sapiens) (UniProt Q00535+Q15078); experiment: Inhibition of CDK5/p25 (unknown origin) at 100 nM; type: protein-complex assay
[18] = biological target: SRSF protein kinase 2 (Homo sapiens) (UniProt P78362); experiment: Inhibition of SRPK2 (unknown origin) at 100 nM
[19] = biological target: Rho-associated protein kinase 1 (Homo sapiens) (UniProt Q13464); experiment: Inhibition of ROCK1 (unknown origin) at 100 nM
[20] = biological target: Leucine-rich repeat serine/threonine-protein kinase 2 (Homo sapiens) (UniProt Q5S007); experiment: Inhibition of LRRK2 (unknown origin) at 100 nM
Leucine-rich repeat serine/threonine-protein kinase 2 (Homo sapiens), sequence (Q5S007 whole entry): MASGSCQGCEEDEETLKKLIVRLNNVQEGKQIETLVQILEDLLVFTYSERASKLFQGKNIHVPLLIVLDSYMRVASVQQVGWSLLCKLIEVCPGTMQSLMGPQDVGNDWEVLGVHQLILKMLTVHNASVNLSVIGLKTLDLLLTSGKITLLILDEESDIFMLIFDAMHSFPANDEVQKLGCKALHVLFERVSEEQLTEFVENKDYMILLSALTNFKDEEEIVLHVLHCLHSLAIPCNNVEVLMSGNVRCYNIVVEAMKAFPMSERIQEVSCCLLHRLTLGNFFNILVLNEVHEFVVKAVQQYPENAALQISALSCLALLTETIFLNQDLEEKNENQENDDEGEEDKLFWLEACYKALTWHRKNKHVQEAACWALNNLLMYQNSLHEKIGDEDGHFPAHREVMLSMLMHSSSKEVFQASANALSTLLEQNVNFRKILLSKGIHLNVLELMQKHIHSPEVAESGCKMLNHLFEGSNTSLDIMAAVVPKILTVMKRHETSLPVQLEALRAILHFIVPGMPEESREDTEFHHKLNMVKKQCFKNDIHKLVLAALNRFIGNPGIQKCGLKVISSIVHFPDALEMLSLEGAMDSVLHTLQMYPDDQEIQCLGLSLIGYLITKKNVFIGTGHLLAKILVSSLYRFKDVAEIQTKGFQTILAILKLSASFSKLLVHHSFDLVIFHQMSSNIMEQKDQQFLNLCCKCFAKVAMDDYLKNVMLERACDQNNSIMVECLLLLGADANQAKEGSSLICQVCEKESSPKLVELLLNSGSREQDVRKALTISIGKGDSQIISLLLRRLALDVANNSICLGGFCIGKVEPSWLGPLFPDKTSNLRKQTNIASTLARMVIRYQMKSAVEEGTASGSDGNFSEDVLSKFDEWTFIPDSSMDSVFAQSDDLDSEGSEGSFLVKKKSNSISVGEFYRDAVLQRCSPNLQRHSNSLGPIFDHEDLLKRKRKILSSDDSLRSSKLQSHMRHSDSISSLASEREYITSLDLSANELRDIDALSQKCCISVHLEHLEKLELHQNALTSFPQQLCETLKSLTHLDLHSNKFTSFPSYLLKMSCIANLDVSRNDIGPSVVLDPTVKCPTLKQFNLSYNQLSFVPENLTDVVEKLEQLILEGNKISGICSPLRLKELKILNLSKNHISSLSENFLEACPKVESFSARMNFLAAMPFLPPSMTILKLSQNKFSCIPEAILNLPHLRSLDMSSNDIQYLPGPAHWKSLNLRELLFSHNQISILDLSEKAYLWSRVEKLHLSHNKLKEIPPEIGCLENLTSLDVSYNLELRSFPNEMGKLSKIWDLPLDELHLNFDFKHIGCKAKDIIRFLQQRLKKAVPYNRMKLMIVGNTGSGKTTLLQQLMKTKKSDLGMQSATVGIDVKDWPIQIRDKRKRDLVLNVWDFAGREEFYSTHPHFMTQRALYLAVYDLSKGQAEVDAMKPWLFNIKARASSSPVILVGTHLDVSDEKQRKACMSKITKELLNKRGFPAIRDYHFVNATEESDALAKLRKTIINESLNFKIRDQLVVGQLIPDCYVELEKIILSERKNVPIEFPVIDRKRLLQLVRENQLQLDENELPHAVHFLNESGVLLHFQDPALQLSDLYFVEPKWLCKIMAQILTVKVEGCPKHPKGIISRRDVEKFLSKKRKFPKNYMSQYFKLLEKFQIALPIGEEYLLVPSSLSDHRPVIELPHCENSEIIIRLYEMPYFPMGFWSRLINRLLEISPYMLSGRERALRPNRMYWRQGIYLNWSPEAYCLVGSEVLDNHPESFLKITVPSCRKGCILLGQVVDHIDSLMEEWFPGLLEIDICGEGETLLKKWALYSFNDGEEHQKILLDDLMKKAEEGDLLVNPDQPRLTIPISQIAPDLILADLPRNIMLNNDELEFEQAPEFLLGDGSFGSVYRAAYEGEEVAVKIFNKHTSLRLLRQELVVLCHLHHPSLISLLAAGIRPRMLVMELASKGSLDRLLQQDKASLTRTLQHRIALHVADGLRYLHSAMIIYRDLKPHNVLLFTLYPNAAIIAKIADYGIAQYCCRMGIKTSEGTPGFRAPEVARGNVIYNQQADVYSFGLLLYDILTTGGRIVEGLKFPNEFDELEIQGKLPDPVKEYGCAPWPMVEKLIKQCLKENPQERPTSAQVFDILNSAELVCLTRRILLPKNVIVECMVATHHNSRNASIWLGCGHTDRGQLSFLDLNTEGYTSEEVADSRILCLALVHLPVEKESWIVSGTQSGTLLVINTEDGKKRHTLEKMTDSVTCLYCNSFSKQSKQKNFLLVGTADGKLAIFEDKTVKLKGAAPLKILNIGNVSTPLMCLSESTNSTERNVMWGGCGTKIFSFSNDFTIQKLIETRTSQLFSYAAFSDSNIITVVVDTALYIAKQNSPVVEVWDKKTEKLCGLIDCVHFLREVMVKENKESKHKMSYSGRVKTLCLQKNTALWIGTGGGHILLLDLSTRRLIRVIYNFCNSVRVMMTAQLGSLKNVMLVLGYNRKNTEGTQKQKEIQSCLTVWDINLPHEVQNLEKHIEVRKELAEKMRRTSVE

[21] = Apparent permeability from the apical to basolateral side in MDCK cells; type: ADME, cell-based, Canis lupus familiaris; details: dog
[22] = biological target: RAC-alpha serine/threonine-protein kinase (Homo sapiens) (UniProt P31749); experiment: Inhibition of AKT1 (unknown origin) at 100 nM
[23] = biological target: Vascular endothelial growth factor receptor 2 (Homo sapiens) (UniProt P35968); experiment: Inhibition of KDR (unknown origin) at 100 nM
Vascular endothelial growth factor receptor 2 (Homo sapiens), sequence (P35968 whole entry): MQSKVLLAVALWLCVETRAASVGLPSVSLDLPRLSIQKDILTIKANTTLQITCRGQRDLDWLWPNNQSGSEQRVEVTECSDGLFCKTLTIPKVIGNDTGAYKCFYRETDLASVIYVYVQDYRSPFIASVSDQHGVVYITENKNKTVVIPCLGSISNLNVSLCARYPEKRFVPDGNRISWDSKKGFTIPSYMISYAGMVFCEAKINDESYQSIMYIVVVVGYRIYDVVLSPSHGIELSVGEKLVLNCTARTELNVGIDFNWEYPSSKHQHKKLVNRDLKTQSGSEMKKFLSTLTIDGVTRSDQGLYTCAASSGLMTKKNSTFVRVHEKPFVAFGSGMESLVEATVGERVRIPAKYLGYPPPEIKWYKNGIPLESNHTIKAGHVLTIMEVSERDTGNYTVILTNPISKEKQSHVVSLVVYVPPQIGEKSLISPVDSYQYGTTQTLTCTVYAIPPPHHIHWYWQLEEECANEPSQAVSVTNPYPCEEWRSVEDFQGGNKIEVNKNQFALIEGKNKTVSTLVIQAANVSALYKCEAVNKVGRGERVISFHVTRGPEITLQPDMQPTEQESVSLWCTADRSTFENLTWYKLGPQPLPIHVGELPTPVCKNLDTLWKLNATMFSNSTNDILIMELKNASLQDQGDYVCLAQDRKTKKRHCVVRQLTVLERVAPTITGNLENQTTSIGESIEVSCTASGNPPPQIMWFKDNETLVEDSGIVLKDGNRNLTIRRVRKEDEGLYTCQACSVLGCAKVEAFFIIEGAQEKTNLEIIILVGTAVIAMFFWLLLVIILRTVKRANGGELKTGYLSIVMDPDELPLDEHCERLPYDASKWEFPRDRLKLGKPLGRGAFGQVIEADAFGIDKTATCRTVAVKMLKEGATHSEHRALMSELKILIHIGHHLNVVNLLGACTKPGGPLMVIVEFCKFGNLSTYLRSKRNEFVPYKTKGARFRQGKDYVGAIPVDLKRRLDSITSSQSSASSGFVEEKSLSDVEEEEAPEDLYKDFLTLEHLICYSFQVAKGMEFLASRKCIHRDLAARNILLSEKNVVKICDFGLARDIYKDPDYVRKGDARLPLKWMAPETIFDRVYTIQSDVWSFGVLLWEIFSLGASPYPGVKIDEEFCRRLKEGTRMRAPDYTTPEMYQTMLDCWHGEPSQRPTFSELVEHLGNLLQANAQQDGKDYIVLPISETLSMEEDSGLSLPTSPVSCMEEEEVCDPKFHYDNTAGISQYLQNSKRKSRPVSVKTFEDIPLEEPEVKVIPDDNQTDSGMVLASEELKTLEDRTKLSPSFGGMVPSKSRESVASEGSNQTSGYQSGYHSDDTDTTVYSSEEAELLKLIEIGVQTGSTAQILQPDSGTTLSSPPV

[24] = biological target: Tyrosine-protein kinase JAK1 (Homo sapiens) (UniProt P23458); experiment: Inhibition of JAK1 (unknown origin) at 100 nM
[25] = biological target: Serine/threonine-protein kinase Nek1 (Homo sapiens) (UniProt Q96PY6); experiment: Inhibition of NEK1 (unknown origin) at 100 nM
[26] = biological target: Insulin receptor (Homo sapiens) (UniProt P06213); experiment: Inhibition of INSR (unknown origin) at 100 nM
[27] = biological target: Macrophage colony-stimulating factor 1 receptor (Homo sapiens) (UniProt P07333); experiment: Inhibition of CSF1R (unknown origin) at 100 nM
Macrophage colony-stimulating factor 1 receptor (Homo sapiens), sequence (P07333 whole entry): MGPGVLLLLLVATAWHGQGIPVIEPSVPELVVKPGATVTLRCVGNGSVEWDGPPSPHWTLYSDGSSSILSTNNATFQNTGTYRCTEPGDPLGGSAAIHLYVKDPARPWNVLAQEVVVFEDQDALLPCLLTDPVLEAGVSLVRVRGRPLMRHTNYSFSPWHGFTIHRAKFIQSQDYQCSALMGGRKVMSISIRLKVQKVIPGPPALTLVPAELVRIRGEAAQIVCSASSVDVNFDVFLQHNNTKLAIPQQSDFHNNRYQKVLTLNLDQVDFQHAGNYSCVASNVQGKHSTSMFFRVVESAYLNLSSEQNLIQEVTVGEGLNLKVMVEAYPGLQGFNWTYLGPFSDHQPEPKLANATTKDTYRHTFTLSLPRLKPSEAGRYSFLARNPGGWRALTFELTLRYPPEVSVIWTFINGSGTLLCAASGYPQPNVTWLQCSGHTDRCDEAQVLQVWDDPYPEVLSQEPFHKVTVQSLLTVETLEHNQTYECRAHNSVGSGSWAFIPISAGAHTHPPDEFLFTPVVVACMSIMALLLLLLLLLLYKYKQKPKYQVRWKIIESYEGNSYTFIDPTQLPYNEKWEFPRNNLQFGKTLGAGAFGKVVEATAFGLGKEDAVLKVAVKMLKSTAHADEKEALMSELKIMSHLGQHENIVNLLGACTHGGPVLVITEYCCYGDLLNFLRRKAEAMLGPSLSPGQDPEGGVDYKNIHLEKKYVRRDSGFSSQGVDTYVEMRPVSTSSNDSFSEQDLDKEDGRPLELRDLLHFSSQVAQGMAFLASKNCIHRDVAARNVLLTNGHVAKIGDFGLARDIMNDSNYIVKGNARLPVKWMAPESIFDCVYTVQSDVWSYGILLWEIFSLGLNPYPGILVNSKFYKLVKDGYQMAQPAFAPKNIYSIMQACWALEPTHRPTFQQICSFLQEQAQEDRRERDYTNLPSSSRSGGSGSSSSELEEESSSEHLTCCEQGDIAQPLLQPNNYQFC

[28] = biological target: High affinity nerve growth factor receptor (Homo sapiens) (UniProt P04629); experiment: Inhibition of TRKA (unknown origin) at 100 nM
[29] = biological target: Ribosomal protein S6 kinase beta-1 (Homo sapiens) (UniProt P23443); experiment: Inhibition of p70S6K(unknown origin) at 100 nM
[30] = tested on: Epidermal growth factor receptor (Homo sapiens), P00533 [L858R,T790M]; experiment: Inhibition of EGFR T790M/L858R double mutant (unknown origin) at 100 nM; type: protein assay
[31] = biological target: Receptor-type tyrosine-protein kinase FLT3 (Homo sapiens) (UniProt P36888); experiment: Inhibition of FLT3 (unknown origin) at 100 nM
[32] = biological target: Tyrosine-protein kinase ABL1 (Homo sapiens) (UniProt P00519); experiment: Inhibition of ABL (unknown origin) at 100 nM
Homo sapiens = species on record: Homo sapiens; experiment: Inhibition of PKA (unknown origin) at 100 nM
[33] = biological target: Tyrosine-protein kinase BTK (Homo sapiens) (UniProt Q06187); experiment: Inhibition of BTK (unknown origin) at 100 nM

CC1(C)OCc2c(Nc3n[nH]c4ccccc34)nc(-c3cn[nH]c3)nc21 showed an inhibition [1] of 88.1%, a Ki [2] of 0.6 nM and an inhibition [3] of 16.6%. The inhibition [4] was 6.9%, the inhibition [5] was -9.9% and the inhibition (TAK1/TAB1 (Homo sapiens)) was 8.9%. The inhibition [6] was -8.7%, the inhibition [7] was 9.8% and the Vd [8] was 6 L/kg. For the same molecule, the inhibition [9] was 2.1%, the inhibition [10] was 13.3% and the inhibition [11] was 4.8%. The inhibition [12] was 7.9%, the clearance [13] was 86 mL/min/kg and the inhibition [14] was 0.4%. It also gave an inhibition [15] of 7.9%, an inhibition [16] of 89.9% and an inhibition [17] of 0%. The inhibition [18] was -8.1%, the inhibition [19] was 0.8% and the inhibition [20] was 13.2%. It also gave a Papp A→B [21] of 6.7 ×10⁻⁶ cm/s, an inhibition [22] of 3.5% and an inhibition [23] of 97.2%. It also gave an inhibition [24] of 7.7%, an inhibition [25] of 6.8% and an inhibition [26] of 5.4%. For the same molecule, the inhibition [27] was 17.5%, the inhibition [28] was 10.2% and the inhibition [29] was 4.3%. For the same molecule, the inhibition [30] was 95.9%, the inhibition [31] was 16.5% and the inhibition [32] was 54.1%. For the same molecule, the inhibition (Homo sapiens) was 78.8% and the inhibition [33] was 19.8%.
For CC1(C)OCc2c(Nc3n[nH]c4c(Cl)cccc34)nc(-c3cn[nH]c3)nc21, the inhibition [1] was 94.6%, the Ki [2] was 1.5 nM and the inhibition [3] was 25.3%. For the same molecule, the inhibition [4] was -3.3%, the inhibition [5] was 4.1% and the inhibition (TAK1/TAB1 (Homo sapiens)) was 3.1%. The inhibition [6] was 3.2%, the inhibition [7] was 8.8% and the Vd [8] was 3.6 L/kg. The inhibition [9] was 8.4%, the inhibition [10] was 4.8% and the inhibition [11] was 7%. The inhibition [12] was 9.4%, the clearance [13] was 74 mL/min/kg and the inhibition [14] was 7%. The inhibition [15] was 11.7%, the inhibition [16] was 94% and the inhibition [17] was 7.8%. For the same molecule, the inhibition [18] was 12.6%, the inhibition [19] was 2.3% and the inhibition [20] was 7.5%. For the same molecule, the Papp A→B [21] was 9.5 ×10⁻⁶ cm/s, the inhibition [22] was 11.1% and the inhibition [23] was 99.3%. For the same molecule, the inhibition [24] was 3.5%, the inhibition [25] was -4% and the inhibition [26] was 2%. It also gave an inhibition [27] of 19.1%, an inhibition [28] of 12.6% and an inhibition [29] of 10.4%. The inhibition [30] was 91.5%, the inhibition [31] was 67.3% and the inhibition [32] was 35.3%. It also gave an inhibition (Homo sapiens) of 88.7% and an inhibition [33] of 17%.
